Measurements: PubChem BioAssay AID179 (DTP/NCI, 2004)
Activity calls are given as the source filed them.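 The calls were made as follows: active = compounds giving half or more protection of infected cells from virus-caused growth loss, again on retest; inactive = the rest.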

Test system: CEM cells HIV-1 protection, formazan growth assay
Assay: NCI AIDS Antiviral Assay
Details: for IC50: measured here: growth of uninfected CEM cells
How it was run: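 Protection of CEM cells against HIV-1 was scored from cell growth (soluble formazan) across five concentrations, with parallel uninfected cells. Lack of protection may reflect toxicity.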

SMILES | EC50 [µM] | IC50 [µM] | outcome
CCOC(=O)/C=C/n1c2ccccc2c(=O)c2ccccc21 | > 9.33 | > 9.33 | –
CCOC(=O)[C@@]12C[C@](/C=C/OC)(O[Si](C)(C)C)[C@@]13c1cc(OC)c(OC)cc1CCN3C(=O)C2=O | > 200 | > 200 | –
OC(CC(CC(O)(C(F)(F)Cl)C(F)(F)Cl)=NNc1ccccc1)(C(F)(F)Cl)C(F)(F)Cl | > 200 | 2.14 | –
CN1CCN(CCCN2CC(=O)N3Cc4ccccc4CN3C(=O)C2)CC1 | > 200 | > 200 | –
COc1cc(C(=O)O[C@@H]2[C@@H](OC(=O)c3cc(OC)c(OC)c(OC)c3)[C@@H](OC)O[C@@H]3CO[C@@H](c4ccccc4)O[C@@H]23)cc(OC)c1OC | > 200 | > 200 | –
O=c1oc2ccccc2c(O)c1Cc1cccc(Cc2c(O)c3ccccc3oc2=O)c1 | – | – | active
O=C1C2=C(c3ccccc31)C(c1ccccc1Cl)NC(=S)N2 (stereo unspecified) | > 79.4 | 33.1 | –
NC1=NC2(CS1)CSC(N)=N2 | > 263 | > 263 | –
CCCCCCCCCCCC1=C(O)C(N[C@@H]2CCCCC2N)=CC(=O)C1=O (stereo partly specified) | > 3.72 | > 3.72 | –
CC1CN=C(CCc2ccc(NC(=O)c3ccc(C(=O)Nc4ccc(CCC5=NCC(C)N5)cc4)cc3)cc2)N1 (stereo unspecified) | > 200 | 45.7 | –
COc1cc2c(c(O)c1C)C(=O)CC(c1ccccc1)O2 (stereo unspecified) | > 35.5 | > 35.5 | –
Cc1cc(Cl)n2nc(-c3ccc(Cl)cc3)nc2n1 | > 49 | > 49 | –
C=CCOc1ccc(/C(N=Nc2ccccc2)=N/NC(=O)c2ccccc2)cc1OC | > 200 | 107 | –
Nc1ccc2c(C(F)(F)F)cc(=O)oc2c1 | > 22.9 | > 22.9 | –
Nn1c(CCCCCCCCc2nnc(COc3ccc(Cl)cc3Cl)n2N)nnc1COc1ccc(Cl)cc1Cl | > 200 | 42.7 | –
O=C1CCCC[C@H]1[C@H]1CCC[C@@H]([C@H]2CCCCC2=O)C1=O | > 871 | 398 | –
c1ccc(SSc2ccccc2)cc1 | > 200 | 5.62 | –
CC(=O)SCCCn1c(=O)n(CCCSC(C)=O)c(=O)n(CCCSC(C)=O)c1=O | > 200 | 12.3 | –
CCN1C(=O)c2cc(OC)c(OC)cc2C(=O)C12OC(=O)c1cc3c(cc12)OCO3 (stereo unspecified) | > 200 | 93.3 | –
COc1cccc(/C=C2\CCCc3ccccc3C2=O)c1 | > 200 | 26.3 | –
CC(C)=CC(=O)O[C@@H]1CC(C)(C)CC2C3=CCC4[C@]56CC[C@](O)(OC5)C(C)(C)C6CC[C@@]4(C)C3(C)CC[C@]21C(=O)O (stereo partly specified) | > 200 | 10.2 | –
COc1cncn2nc(C)nc12 | > 75.9 | > 75.9 | –

SMILES | EC50 [µM] | IC50 [µM] | outcome
C[C@@H]1C[C@H]2[C@@H]3C[C@H](F)C4=CC(=O)C=C[C@]4(C)[C@@]3(F)[C@@H](O)C[C@]2(C)C1C(=O)COC(=O)c1cccc2c(=O)c3ccccc3[nH]c12 (stereo partly specified) | > 100 | 2 | –
COc1ccc(C(=O)O)c2c(=O)c3cccnc3[nH]c12 | – | – | inactive
CCCCCCC(=O)N1SC(NC(=O)OC)=Nc2ccccc21 | > 77.6 | 10.2 | –
O=Nc1c(-c2ccccc2)nc2ccccn12 | > 200 | 38.9 | –
CC(=O)Nn1c(Cc2ccc(Cl)cc2)nn(C)c1=O | – | – | inactive
CN(C)c1ccc(/C=c2\sc3nnc(-c4ccco4)n3c2=O)cc1 | > 11.2 | > 11.2 | –
COC(=O)CC(NC(=O)OCc1ccccc1)C(C(C)=O)C(=O)OCc1ccccc1 (stereo unspecified) | > 75.9 | > 75.9 | –
O=C(O)c1ccc(S(=O)(=O)c2ccccc2[N+](=O)[O-])cc1 | > 200 | > 200 | –
COC1=CC2=C3[C@H](Cc4cc5c(c(c4)Oc4ccc(cc4)C[C@@H]4c6cc7c(cc6CCN4C)OC[C@]3(O7)C1=O)OCO5)N(C)CC2 | – | – | inactive
COC(=O)CCCC=C(c1cc(C)c(OC)c(C(=O)OC)c1)c1cc(C)c(OC)c(C(=O)OC)c1 | 2.4 | 89.1 | –
COc1cc2c[n+](C)c3c(c2cc1OC)Cc1cc(OS(C)(=O)=O)c(OC)cc1-3 | > 57.5 | 10.5 | –
N#CC1(C#N)C(C#N)(C#N)C12CCCCC2Cl (stereo unspecified) | > 20 | > 20 | –
Cc1ccc(Nc2nc(C)c(C(=O)C/C(=N\NC(N)=S)C(=O)Nc3ccc(Cl)cc3C)s2)cc1 | > 200 | > 200 | –
O=[N+]([O-])c1ccccc1OS(=O)(=O)c1ccccc1 | – | – | inactive
CCNc1nc2ccccc2nc1NCC | > 200 | > 200 | –
Brc1ccc(N=NN2CCCC2)cc1 | > 200 | 38.9 | –
O=C1C(=O)C(CN2CCOCC2)=C(N2CCOCC2)C(N2CCOCC2)=C1CN1CCOCC1 | > 200 | 77.6 | –
Cc1cc(Cl)ccc1NC(=O)CCCC(=O)C1C/C(=N/O)CC/C1=N\O (stereo unspecified) | > 95.5 | > 95.5 | –
O=CN(SSN(C=O)C1CCCCC1)C1CCCCC1 | – | – | inactive
CCCC1(CCCNC(=O)c2ccccc2)OCc2ccccc2CO1 | > 513 | > 513 | –
O=S(=O)(NCCSSCCNS(=O)(=O)c1ccc(Cl)cc1)c1ccc(Cl)cc1 | > 200 | 17.8 | –
O=S(=O)(O)c1ccc(N=Nc2ccc(O)cc2O)cc1 | > 200 | 112 | –

SMILES | EC50 [µM] | IC50 [µM] | outcome
Cc1ccccc1N=CN(C)C | > 200 | 42.7 | –
CC1=C(C(=O)N(C)c2ccc(Cl)c(C(=O)OC(C)C)c2)SCCO1 | > 240 | 93.3 | –
CC1(C)OC(=O)c2cc(C(=CC=O)c3cc(Cl)c4c(c3)C(=O)OC(C)(C)O4)cc(Cl)c2O1 | > 200 | 36.3 | –
COc1ccc(COCC[C@H](C)OC2OC(CO)C(O)C(O)C2O)cc1 (stereo partly specified) | > 200 | > 200 | –
Nc1nc(N)c(N=O)c(=O)[nH]1.[Cd] | > 200 | 1.74 | –
C=Cc1c(-c2ccccc2)cnc2[nH]c3ccccc3c12 | > 13.8 | > 13.8 | –
CC1(C)C2CCC1(C)C(NC(=O)COCCOCC(N)=O)C2 (stereo unspecified) | > 83.2 | 41.7 | –
CCN(Cc1cccc(S(=O)(=O)O)c1)c1ccc(C(=C2C=CC(=[N+](CC)Cc3cccc(S(=O)(=O)O)c3)C=C2)c2ccc(S(=O)(=O)O)cc2)cc1 | > 112 | 79.4 | –
CCCCCCCCCc1cc(-c2ccc(C=O)s2)sc1-c1ccc(C=O)s1 | > 200 | 2.75 | –
CN1c2ccccc2N=Cc2c1oc1ccc3ccccc3c1c2=O | 46.8 | 50.1 | –
CC1=NNC(=O)[C@H]2[C@H]1CCC1[C@@H]2CC[C@]2(C)[C@@H](O)CC[C@@H]12 (stereo partly specified) | > 200 | > 200 | –
COc1ccc(NC(=O)CSc2nnc(-c3ccc(NC(C)=O)cc3)o2)cc1 | > 33.9 | 19.1 | –
NCCCCN(CCCN)Cc1ccc2ccccc2c1 | > 200 | 72.4 | –
CCOC(=O)Oc1cc2ccsc2c2c1c1ccccc1n2C(=O)OCC | > 200 | 35.5 | –
Cc1nn(-c2ccccc2)c2c1S(=O)(=O)c1ccccc1-2 | > 112 | 69.2 | –
CC(C)C(NCc1c2ccccc2[n+]([O-])c2ccccc12)C(=O)O (stereo unspecified) | – | – | inactive
CCOC(=O)/C(C1=N[C@H](C(=O)OCC)CS1)=C(\C)O | > 631 | > 631 | –
O=c1[nH]c(=O)n(C2OC(CO)C(O)C2O)cc1OCCCc1ccccc1 (stereo unspecified) | > 200 | > 200 | –
CCCCc1ccc(Nc2nc(OC)c3ncn(C4CC(O)C(CO)O4)c3n2)cc1 (stereo unspecified) | > 200 | 15.1 | –
C=CCNc1nc(C#N)c(N)s1 | > 200 | > 200 | –
COC(=O)C(C)Oc1ccc(O)cc1 (stereo unspecified) | > 1260 | > 1260 | –
O=C(O)CCOCCCCCCCCCl | – | – | inactive

SMILES | EC50 [µM] | IC50 [µM] | outcome
CCOC(=O)CCC(NC(=O)OCc1ccccc1)C(=O)NC(CCC(=O)OCC)C(=O)NC(CCC(=O)OCC)C(=O)NC(CCC(=O)OCC)C(=O)NC(CCC(=O)OCC)C(=O)OCC (stereo unspecified) | > 100 | > 100 | –
Nc1nc(N)c2cc(-c3ccccc3)cnc2n1 | > 200 | 15.8 | –
CCN(CC)C(=S)S[Se](SC(=S)N(CC)CC)(SC(=S)N(CC)CC)SC(=S)N(CC)CC | > 200 | 0.794 | –
Cc1cc(=O)c2c(O)c3c(O)cc(O)c4c5c(O)cc(O)c6c(O)c7c(=O)cc(C)c8c1c2c(c34)c(c65)c78 | > 100 | – | –
Cc1ccc(NC(=O)CC(=O)N2N=C(N(c3ccccc3)c3ccccc3)CC2c2ccccc2)cc1 (stereo unspecified) | – | – | inactive
CC1=Nn2c(nnc2-c2ccccc2Cl)NC(C)(C)C1 | > 447 | 282 | –
CCC1=NC(N/N=C/c2ccco2)=N/C1=C\c1ccco1 | > 200 | 110 | –
O=C(N/S(=N/S(=O)(=O)c1ccc(Br)cc1)C(Cl)(Cl)Cl)c1ccccc1 (stereo unspecified) | > 200 | > 200 | –
O=C1CNC(=O)c2c(ncn2C2OC(CO)C(O)C2O)N1 (stereo unspecified) | > 214 | > 214 | –
CCCCCCCCCCCC(=O)OCCOCCOCCOCCOCCOCc1ccc(OC)cc1 | – | – | inactive
CC(=O)OCCCOCn1c(Cc2ccccc2)c(C)c(=O)[nH]c1=O | 100 | > 200 | –
CC(C)(C)[Si](C)(C)OC[C@H](CO)NC(=O)OCc1ccccc1 | > 200 | 38.9 | –
COc1cc(C2C(Cl)C(=O)N2NC(=O)c2ccc(NC(C)=O)cc2)cc(Br)c1O (stereo unspecified) | > 200 | 162 | –
CC1(c2ccc(Cl)cc2)OCC(CCl)O1 (stereo unspecified) | > 200 | > 200 | –
COC12[C@@H]3N[C@@H]3CN1C1=C(C(=O)C(NCCSSCCNC3=C(C)C(=O)C4=C(C3=O)C(COC(N)=O)[C@]3(OC)C5N[C@@H]5CN43)=C(C)C1=O)[C@@H]2COC(N)=O (stereo partly specified) | > 200 | 0.0631 | –
Cc1cnc2c(c1)C(=O)N(c1ccc(Oc3ccccc3)cc1)S2(=O)=O | > 200 | > 200 | –
O=C1C=CC(O)=CC1=P(c1ccccc1)(c1ccccc1)c1ccccc1 | > 200 | 32.4 | –
O=S1(=O)c2ccccc2NC(c2ccc3ccccc3c2)CC1c1ccccc1F (stereo unspecified) | > 6.46 | > 6.46 | –
O=C(CC(=O)Nc1ccc(C(=O)O)cc1)Nc1ccc(C(=O)O)cc1 | > 200 | > 200 | –
OCC1OC(n2cnc3cccnc32)CC1O (stereo unspecified) | > 200 | > 200 | –
